Measured values: patent publication US8309685B2 (Celgene Avilomics Research, Inc., priority 2007, dated 2012)
Read-outs that look alike come from different tables or passages of the source.

Tests used:
[1] = target: T1, D168A mutant of the HCV NS3/4A 1b protease enzyme (Hepatitis C virus genotype 1b, UniProt P26663, D1194A); assay: HCV Protease FRET Assay (IC50_APP), D168A mutant; type: biochemical
T1 construct: 10× stocks of NS3/4A protease enzyme from Bioenza (Mountain View, Calif.); purchased Bioenza (Mountain View, Calif.)

[2] = system: HCV RNA replicon in cell line ET (luc-ubi-neo/ET), human Huh7 hepatoma; assay: Luciferase Assay (Example 35), replicon-derived luciferase activity; type: cell-based; conditions: Hepatitis C virus, Huh-7, assay described in Example 35
Experimental: The compounds were assayed to evaluate the antiviral activity and cytotoxicity of compounds using replicon-derived luciferase activity. This assay used the cell line ET (luc-ubi-neo/ET), which is a human Huh7 hepatoma cell line that contains an HCV RNA replicon with a stable luciferase (Luc) reporter and cell culture-adaptive mutations. The ET cell line was grown in a 5% CO2 incubator at 37° C. in Dulbecco's modified essential media (DMEM) supplemented with 2 mM L-glutamine, nonessential amino acids, 100 U of penicillin/ml, 100 μg of streptomycin/mL, and 10% fetal bovine serum. G418 (Geneticin; Invitrogen) was added at a final concentration of 400 ug//mL.
All cell culture reagents were obtained from Invitrogen (Carlsbad). Cells were trypsinized (1% trypsin:EDTA) and plated out at 5×10^3 cells/well in white 96-well assay plates (Costar) dedicated to cell number (cytotoxicity) or antiviral activity assessments. Test compounds were added at six 3-fold concentrations each and the assay was run in DMEM, 5% FBS, 1% pen-strep, 1% glutamine, 1% non essential amino acid. Human interferon alpha-2b (PBL Biolabs, New Brunswick, N.J.) was included in each run as a positive control compound. Cells were processed 72 hr post test compound addition when the cells were still subconfluent. Antiviral activity was measured by analyzing replicon-derived luciferase activity using the Steady-Glo Luciferase Assay System (Promega, Madison, Wis.) according to manufacturer's instruction. The number of cells in each well was determined by Cell Titer Blue Assay (Promega). Compound profile was derived by calculating applicable EC50 (effective concentration inhibiting virus replication by 50%), EC90 (effective concentration inhibiting virus replication by 90%), IC50 (concentration decreasing cell viability by 50%) and SI50 (selective index: […]) values.

[3] = target: T2, R155K mutant of the HCV NS3/4A 1b protease enzyme (Hepatitis C virus genotype 1b, UniProt P26663, R1181K); assay: HCV Protease FRET Assay (IC50_APP), R155K mutant; type: biochemical
T2 construct: 10× stocks of NS3/4A protease enzyme from Bioenza (Mountain View, Calif.); purchased Bioenza (Mountain View, Calif.)
Experimental: HCV Protease FRET Assay for WT and Mutated NS3/4A 1b Enzymes (IC50—APP).
The following protocol was used to generate “apparent” IC50 (IC50—APP) values as depicted in Table 6, below. […] 5 μL of each enzyme were added to Corning (#3575) 384-well, black, microtiter plates (Corning, N.Y.) after spotting a 0.5 μL volume of 50% DMSO and serially diluted compounds prepared in 50% DMSO. Protease reactions were immediately started after enzyme addition with the addition of 45 μL of the FRET substrate and monitored for 60-90 minutes at λex485/λem520 in a Synergy^4 plate reader from BioTek (Winooski, Vt.). At the conclusion of each assay, progress curves from each well were examined for linear reaction kinetics and fit statistics (R^2, 95% confidence intervals, absolute sum of squares).
The compound numbers correspond to the compound numbers in Table 3. […] ;

[4] = target: T3, wild type HCV NS3/4A 1b protease enzyme (Hepatitis C virus genotype 1b, UniProt P26663); assay: HCV Protease FRET Assay (IC50_APP), wild type; type: biochemical
T3 construct: 10× stocks of NS3/4A protease enzyme from Bioenza (Mountain View, Calif.); purchased Bioenza (Mountain View, Calif.)

[5] = apparent IC50, D168A mutant; read-out: IC50_APP, HCV D168A
[6] = apparent IC50, R155K mutant; read-out: IC50_APP, HCV R155K
[7] = read-out: IC50_APP, WT, apparent IC50, wild type NS3/4A 1b

SMILES | IC50 [1, 5] | EC90 [2] | EC50 [2] | IC50 [3, 6] | IC50 [4] | IC50 [4, 7] | IC50 ([1]; read-out: IC50_APP, HCV D168A; apparent IC50, D168A mutant) | IC50 ([3]; read-out: IC50_APP, HCV R155K; apparent IC50, R155K mutant)
C=C[C@@H]1C[C@]1(NC(=O)[C@@H]1C[C@@H]2CN1C(=O)[C@H](CCC(=O)C=C(C)C)NC(=O)OCCC/C=C/c1ccc3ccnc(c3c1)O2)C(=O)NS(=O)(=O)C1CC1 [Compound I-102] | 1 to 10 µM | 0.01 to 0.1 µM | < 0.01 µM | 0.01 to 0.1 µM | < 0.01 µM | – | – | –
C=CC(=O)N[C@H](C(=O)N1C[C@H](Oc2nccc3cc(OC)ccc23)C[C@H]1C(=O)N[C@]1(C(=O)NS(=O)(=O)C2CC2)C[C@H]1C=C)C(C)(C)O [Compound I-131] | 0.01 to 0.1 µM | – | 0.1 to 1 µM | 0.01 to 0.1 µM | – | < 0.01 µM | – | –
C=C[C@@H]1C[C@]1(NC(=O)[C@@H]1C[C@@H](Oc2nccc3ccc(Br)cc23)CN1C(=O)[C@H](CCC(=O)/C(C)=C/C)NC(=O)OC(C)(C)C)C(=O)NS(=O)(=O)C1CC1 [Compound I-91, {1-[4-(7-Bromo-isoquinolin-1-yloxy)-2-(1-cyclopropanesulfonylaminocarbonyl-2-vinyl-cyclopropylcarbamoyl)-pyrrolidine-1-carbonyl]-5-methyl-4-oxo-hept-5-enyl}-carbamic acid tert-butyl ester] | 1 to 10 µM | 0.1 to 1 µM | 0.01 to 0.1 µM | 0.1 to 1 µM | – | < 0.01 µM | – | –
C=C[C@@H]1C[C@]1(NC(=O)[C@@H]1C[C@@H](Oc2nccc3cc(OC)ccc23)CN1C(=O)[C@H](CC(=O)C=C(C)C)NC(=O)OC(C)(C)C)C(=O)NS(=O)(=O)C1CC1 [Compound I-129] | 0.1 to 1 µM | – | < 0.01 µM | 0.01 to 0.1 µM | – | < 0.01 µM | – | –
C=CC(=O)N[C@H](C)C(=O)N1C[C@H](Oc2nccc3cc(OC)ccc23)C[C@H]1C(=O)N[C@]1(C(=O)NS(=O)(=O)C2CC2)C[C@H]1C=C [Compound I-100] | 0.01 to 0.1 µM | – | 0.01 to 0.1 µM | < 0.01 µM | – | < 0.01 µM | – | –
C=C[C@@H]1C[C@]1(NC(=O)[C@@H]1C[C@@H](Oc2nccc3cc(OC)ccc23)CN1C(=O)[C@H](CC(=O)C(=C)C)NC(=O)OC(C)(C)C)C(=O)NS(=O)(=O)C1CC1 [Compound I-132] | < 0.01 µM | – | 0.1 to 1 µM | < 0.01 µM | – | < 0.01 µM | – | –
C=C[C@@H]1C[C@]1(NC(=O)[C@@H]1C[C@@H](Oc2nccc3cc(OC)ccc23)CN1C(=O)[C@H](CCC(=O)C#Cc1ccccc1)NC(=O)OC(C)(C)C)C(=O)NS(=O)(=O)C1CC1 [Compound I-138] | 0.01 to 0.1 µM | – | 0.1 to 1 µM | < 0.01 µM | – | < 0.01 µM | – | –
C=C[C@@H]1C[C@]1(NC(=O)[C@@H]1C[C@@H](Oc2nccc3cc(OC)ccc23)CN1C(=O)[C@@H](C)NC(=O)CC)C(=O)NS(=O)(=O)C1CC1 [I^R-100, (2S,4R)—N-((1R,2S)-1-(cyclopropylsulfonylcarbamoyl)-2-vinylcyclopropyl)-4-(6-methoxyisoquinolin-1-yloxy)-1-((R)-2-propionamidopropanoyl)pyrrolidine-2-carboxamide] | 1 to 10 µM | – | 1 to 10 µM | 1 to 10 µM | 0.1 to 1 µM | – | – | –
C=C[C@@H]1C[C@]1(NC(=O)[C@@H]1C[C@@H](Oc2nccc3cc(OC)ccc23)CN1C(=O)[C@H](CCC(=O)C#CC(C)(C)C)NC(=O)OC(C)(C)C)C(=O)NS(=O)(=O)C1CC1 [Compound I-135] | < 0.01 µM | – | 0.01 to 0.1 µM | < 0.01 µM | – | < 0.01 µM | – | –
C=CC(=O)N[C@@H](C(=O)N1C[C@H](Oc2nccc3cc(OC)ccc23)C[C@H]1C(=O)N[C@]1(C(=O)NS(=O)(=O)C2CC2)C[C@H]1C=C)C(C)C [Compound I-101] | 0.1 to 1 µM | – | 0.01 to 0.1 µM | 0.01 to 0.1 µM | – | < 0.01 µM | – | –
C=CC(=O)NC[C@H](NC(=O)OC(C)(C)C)C(=O)N1C[C@H](Oc2nccc3ccccc23)C[C@H]1C(=O)N[C@]1(C(=O)NS(=O)(=O)C2CC2)C[C@H]1C=C [Compound I-97, {1-(Acryloylamino-methyl)-2-[2-(1-cyclopropanesulfonylaminocarbonyl-2-vinyl-cyclopropylcarbamoyl)-4-(isoquinolin-1-yloxy)-pyrrolidin-1-yl]-2-oxo-ethyl}-carbamic acid tert-butyl ester] | – | 0.1 to 1 µM | 0.1 to 1 µM | – | – | < 0.01 µM | 0.1 to 1 µM | 0.1 to 1 µM
C=C[C@@H]1C[C@]1(NC(=O)[C@@H]1C[C@@H](Oc2nccc3cc(OC)ccc23)CN1C(=O)[C@H](CCC(=O)/C(C)=C/C)NC(=O)OC(C)(C)C)C(=O)NS(=O)(=O)C1CC1 [Compound I-95, {1-[2-(1-Cyclopropanesulfonylaminocarbonyl-2-vinyl-cyclopropylcarbamoyl)-4-(6-methoxy-isoquinolin-1-yloxy)-pyrrolidine-1-carbonyl]-5-methyl-4-oxo-hept-5-enyl}-carbamic acid tert-butyl ester] | 0.1 to 1 µM | 0.1 to 1 µM | 0.01 to 0.1 µM | 0.01 to 0.1 µM | – | < 0.01 µM | – | –
C=CCN(C[C@H](NC(=O)OC(C)(C)C)C(=O)N1C[C@H](Oc2nccc3cc(OC)ccc23)C[C@H]1C(=O)N[C@]1(C(=O)NS(=O)(=O)C2CC2)C[C@H]1C=C)C(=O)C=C [Compound I-99, {1-[(Acryloyl-allyl-amino)-methyl]-2-[2-(1-cyclopropanesulfonylaminocarbonyl-2-vinyl-cyclopropylcarbamoyl)-4-(6-methoxy-isoquinolin-1-yloxy)-pyrrolidin-1-yl]-2-oxo-ethyl}-carbamic acid tert-butyl ester] | 1 to 10 µM | – | 0.01 to 0.1 µM | 0.1 to 1 µM | – | < 0.01 µM | – | –
C=C[C@@H]1C[C@]1(NC(=O)[C@@H]1C[C@@H](Oc2nccc3cc(OC)ccc23)CN1C(=O)[C@H](CCC(=O)/C=C/C1CCCC1)NC(=O)OC(C)(C)C)C(=O)NS(=O)(=O)C1CC1 [Compound I-141, tert-butyl-(S,E)-7-cyclopentyl-1-((2S,4R)-2-((1R,2S)-1-(cyclopropylsulfonylcarbamoyl)-2-vinylcyclopropylcarbamoyl)-4-(6-methoxyisoquinolin-1-yloxy)pyrrolidin-1-yl)-1,5-dioxohept-6-en-2-ylcarbamate] | 0.1 to 1 µM | – | < 0.01 µM | 0.01 to 0.1 µM | < 0.01 µM | – | – | –
C=C[C@@H]1C[C@]1(NC(=O)[C@@H]1C[C@@H](Oc2nccc3cc(OC)ccc23)CN1C(=O)[C@H](CCC(=O)/C=C\C(C)(C)C)NC(=O)OC(C)(C)C)C(=O)NS(=O)(=O)C1CC1 [Compound I-136] | 0.1 to 1 µM | – | < 0.01 µM | 0.1 to 1 µM | – | < 0.01 µM | – | –
C=C(C)C(=O)C[C@H](NC(=O)OC(C)(C)C)C(=O)N1C[C@H](Oc2nccc3cc(OC)ccc23)C[C@H]1C(=O)N[C@]1(C(=O)NS(=O)(=O)C2CC2)C[C@H]1CC [Compound I-140] | 0.01 to 0.1 µM | – | 0.1 to 1 µM | < 0.01 µM | – | < 0.01 µM | – | –
